ChEMBL document CHEMBL3526001, “Attenuation of intestinal absorption by major efflux transporters: quantitative tools and strategies using a Caco-2 model” (Drug Metab Dispos, 2011)

How the values were obtained:
[1] = clinical; conditions: human, in vivo
Description: Fraction absorbed in human

[2] = in vitro; conditions: human, Caco-2
[3] = in vitro; conditions: human, Caco-2; remark: listed apart in the source
[4] = in vitro; conditions: human, Caco-2; remark: listed apart in the source
[5] = tested on: P-gp; assay: in vitro; conditions: human
[6] = human, caco-2, 2 h, 10 µM
[7] = human, caco-2, 2 h, 10 µM; remark: listed apart in the source

Structure (SMILES) | Fa [1] | Papp A→B at 2 h, 10 µM [2] | Papp B→A at 2 h, 10 µM [3] | efflux ratio at 2 h, 10 µM [4] | efflux ratio at 2 h, 10 µM ([5]; Caco-2) | Papp [6] | Papp [7] | efflux ratio at 2 h, 10 µM ([5]; Caco-2, with LY335979 1 uM)
CCCCC(=O)N(Cc1ccc(-c2ccccc2-c2nnn[nH]2)cc1)[C@H](C(=O)O)C(C)C | 25% | 0.4 ×10⁻⁶ cm/s | 1.7 ×10⁻⁶ cm/s | 4.1 | 2.9 |  |  | 
CC(C)(C)NC(=O)[C@@H]1C[C@@H]2CCCC[C@@H]2CN1C[C@@H](O)[C@H](Cc1ccccc1)NC(=O)[C@H](CC(N)=O)NC(=O)c1ccc2ccccc2n1 | 4% |  |  |  |  | 0.4 ×10⁻⁶ cm/s | 5.6 ×10⁻⁶ cm/s | 
CC(C)CN(C[C@@H](O)[C@H](Cc1ccccc1)NC(=O)O[C@H]1CCOC1)S(=O)(=O)c1ccc(N)cc1 | 70% | 8 ×10⁻⁶ cm/s |  |  |  |  |  | 
CNS(=O)(=O)Cc1ccc2[nH]cc(CCN(C)C)c2c1 |  | 1.5 ×10⁻⁶ cm/s | 2.2 ×10⁻⁶ cm/s | 1.4 |  |  |  | 0.5
CC1=C(CC(=O)O)c2cc(F)ccc2/C1=C\c1ccc([S+](C)[O-])cc1 (configuration not stated) | 90% |  |  | 3.6 |  | 2 ×10⁻⁶ cm/s | 13.5 ×10⁻⁶ cm/s | 2.6
O=C(O)CN(CCN(CC(=O)O)Cc1ccccc1O)Cc1ccccc1O |  | 0.02 ×10⁻⁶ cm/s | 0.04 ×10⁻⁶ cm/s | 2.1 |  |  |  | 2
CC(C)(C)NC(=O)[C@@H]1CN(Cc2cccnc2)CCN1C[C@@H](O)C[C@@H](Cc1ccccc1)C(=O)N[C@H]1c2ccccc2C[C@H]1O.O | 63% | 2.4 ×10⁻⁶ cm/s | 22.8 ×10⁻⁶ cm/s | 9.7 | 0.8 |  |  | 
Cc1c(O)cccc1C(=O)N[C@@H](CSc1ccccc1)[C@H](O)CN1C[C@H]2CCCC[C@H]2C[C@H]1C(=O)NC(C)(C)C | 3% | 0.7 ×10⁻⁶ cm/s | 1.7 ×10⁻⁶ cm/s | 2.5 |  |  |  | 0.7
CCCC(=O)Nc1ccc(OCC(O)CNC(C)C)c(C(C)=O)c1 (configuration not stated) [ACEBUTOLOL] | 70% | 1.1 ×10⁻⁶ cm/s | 4.1 ×10⁻⁶ cm/s | 3.6 | 1 |  |  | 
COCc1c(C(C)C)nc(C(C)C)c(/C=C/[C@@H](O)C[C@@H](O)CC(=O)O)c1-c1ccc(F)cc1 [CERIVASTATIN] | 98% |  |  |  |  |  |  | 
O=C(O)COCCN1CCN(C(c2ccccc2)c2ccc(Cl)cc2)CC1 (configuration not stated) [CETIRIZINE] | 66% |  |  |  |  |  |  | 
CCN(CC)CCCC(C)Nc1ccnc2cc(Cl)ccc12 (configuration not stated) [CHLOROQUINE] | 89% |  |  |  |  |  |  | 
CC[C@H]1OC(=O)[C@H](C)[C@@H](O[C@H]2C[C@@](C)(OC)[C@@H](O)[C@H](C)O2)[C@H](C)[C@@H](O[C@@H]2O[C@H](C)C[C@H](N(C)C)[C@H]2O)[C@](C)(OC)C[C@@H](C)C(=O)[C@H](C)[C@@H](O)[C@]1(C)O [CLARITHROMYCIN] | 50% | 3.5 ×10⁻⁶ cm/s | 18 ×10⁻⁶ cm/s | 5.1 | 0.8 |  |  | 
OCCN(CCO)c1nc(N2CCCCC2)c2nc(N(CCO)CCO)nc(N3CCCCC3)c2n1 [DIPYRIDAMOLE] | 66% |  |  |  |  |  |  | 
OC(Cn1cncn1)(Cn1cncn1)c1ccc(F)cc1F [FLUCONAZOLE] |  | 11.6 ×10⁻⁶ cm/s | 6.7 ×10⁻⁶ cm/s | 0.6 | 0.1 |  |  | 
CNCCC(Oc1ccc(C(F)(F)F)cc1)c1ccccc1 (configuration not stated) [FLUOXETINE] | 70% |  |  |  |  |  |  | 
O=C(CCCN1CCC(O)(c2ccc(Cl)cc2)CC1)c1ccc(F)cc1 [HALOPERIDOL] | 60% | 4.1 ×10⁻⁶ cm/s | 1.8 ×10⁻⁶ cm/s | 0.4 |  |  |  | 0.4
Cc1ccc(NC(=O)c2ccc(CN3CCN(C)CC3)cc2)cc1Nc1nccc(-c2cccnc2)n1 [IMATINIB] | 67% |  |  |  |  |  |  | 
Nc1cc(-c2ccncc2)c[nH]c1=O [INAMRINONE] |  |  |  | 1.4 |  | 7.5 ×10⁻⁶ cm/s | 16.6 ×10⁻⁶ cm/s | 3.3
CCc1c2c(nc3ccc(OC(=O)N4CCC(N5CCCCC5)CC4)cc13)-c1cc3c(c(=O)n1C2)COC(=O)[C@]3(O)CC [IRINOTECAN] |  | 1.4 ×10⁻⁶ cm/s | 5.1 ×10⁻⁶ cm/s | 3.7 |  |  |  | 2.7

Structure (SMILES) | Fa [1] | Papp A→B at 2 h, 10 µM [2] | Papp B→A at 2 h, 10 µM [3] | efflux ratio at 2 h, 10 µM [4] | efflux ratio at 2 h, 10 µM ([5]; Caco-2) | Papp [6] | Papp [7] | efflux ratio at 2 h, 10 µM ([5]; Caco-2, with LY335979 1 uM)
CC(=O)N1CCN(c2ccc(OCC3COC(Cn4ccnc4)(c4ccc(Cl)cc4Cl)O3)cc2)CC1 (configuration not stated) [KETOCONAZOLE] | 90% | 18 ×10⁻⁶ cm/s | 5.1 ×10⁻⁶ cm/s |  |  |  |  | 
CN(C)C(=O)C(CCN1CCC(O)(c2ccc(Cl)cc2)CC1)(c1ccccc1)c1ccccc1 [LOPERAMIDE] |  | 5.8 ×10⁻⁶ cm/s | 7.6 ×10⁻⁶ cm/s |  |  |  |  | 
C[C@H]1C[C@@H]2[C@H]([C@@H](O)C[C@@]3(C)[C@H]2CC[C@]3(O)C(=O)CO)[C@@]2(C)C=CC(=O)C=C12 [METHYLPREDNISOLONE] |  | 8.5 ×10⁻⁶ cm/s | 24.6 ×10⁻⁶ cm/s | 2.9 |  |  |  | 0.8
O=C1c2c(O)ccc(O)c2C(=O)c2c(NCCNCCO)ccc(NCCNCCO)c21 [MITOXANTRONE] | 85% | 26.3 ×10⁻⁶ cm/s | 12.5 ×10⁻⁶ cm/s | 0.5 | 0.6 |  |  | 
COC(=O)C1=C(C)NC(C)=C(C(=O)OCCN(C)Cc2ccccc2)C1c1cccc([N+](=O)[O-])c1 (configuration not stated) [NICARDIPINE] | 100% | 5 ×10⁻⁶ cm/s | 2.6 ×10⁻⁶ cm/s | 0.5 | 0.5 |  |  | 
O=C1CN(/N=C/c2ccc([N+](=O)[O-])o2)C(=O)N1 [NITROFURANTOIN] | 100% | 1.1 ×10⁻⁶ cm/s | 11.1 ×10⁻⁶ cm/s | 10.4 |  |  |  | 
CCn1cc(C(=O)O)c(=O)c2cc(F)c(N3CCNCC3)cc21 [NORFLOXACIN] | 40% | 1.9 ×10⁻⁶ cm/s | 3.3 ×10⁻⁶ cm/s | 1.7 | 1.7 |  |  | 
O=C(O)c1cc(/N=N/c2ccc(O)c(C(=O)O)c2)ccc1O [OLSALAZINE] |  | 0.9 ×10⁻⁶ cm/s | 3.1 ×10⁻⁶ cm/s | 3.7 |  |  |  | 1.9
CC(=O)O[C@H]1C(=O)[C@@]2(C)[C@H]([C@H](OC(=O)c3ccccc3)[C@]3(O)C[C@H](OC(=O)[C@H](O)[C@@H](NC(=O)c4ccccc4)c4ccccc4)C(C)=C1C3(C)C)[C@]1(OC(C)=O)CO[C@@H]1C[C@@H]2O [PACLITAXEL] | 6% |  |  |  |  |  |  | 
COc1cc2nc(N3CCN(C(=O)c4ccco4)CC3)nc(N)c2cc1OC [PRAZOSIN] | 100% | 6.2 ×10⁻⁶ cm/s | 11.1 ×10⁻⁶ cm/s | 1.8 |  |  |  | 
COC(=O)[C@H]1[C@H]2C[C@@H]3c4[nH]c5cc(OC)ccc5c4CCN3C[C@H]2C[C@@H](OC(=O)c2cc(OC)c(OC)c(OC)c2)[C@@H]1OC [RESERPINE] | 50% | 3.6 ×10⁻⁶ cm/s | 2.3 ×10⁻⁶ cm/s | 0.6 | 0.7 |  |  | 
CC(C)c1nc(CN(C)C(=O)N[C@H](C(=O)N[C@@H](Cc2ccccc2)C[C@H](O)[C@H](Cc2ccccc2)NC(=O)OCc2cncs2)C(C)C)cs1 [RITONAVIR] | 66% | 2.1 ×10⁻⁶ cm/s | 9.2 ×10⁻⁶ cm/s |  |  |  |  | 
CC(C)c1nc(N(C)S(C)(=O)=O)nc(-c2ccc(F)cc2)c1/C=C/[C@@H](O)C[C@@H](O)CC(=O)O [ROSUVASTATIN] | 20% | 0.5 ×10⁻⁶ cm/s | 7.5 ×10⁻⁶ cm/s | 15.9 |  |  |  | 
C=CC[C@@H]1/C=C(\C)C[C@H](C)C[C@H](OC)[C@H]2O[C@@](O)(C(=O)C(=O)N3CCCC[C@H]3C(=O)O[C@H](/C(C)=C/[C@@H]3CC[C@@H](O)[C@H](OC)C3)[C@H](C)[C@@H](O)CC1=O)[C@H](C)C[C@@H]2OC [TACROLIMUS ANHYDROUS] | 25% | 1 ×10⁻⁶ cm/s | 3.6 ×10⁻⁶ cm/s | 3.5 |  |  |  | 0.7
COc1cc([C@@H]2c3cc4c(cc3[C@@H](O[C@@H]3O[C@@H]5CO[C@@H](c6cccs6)O[C@H]5[C@H](O)[C@H]3O)[C@H]3COC(=O)[C@H]23)OCO4)cc(OC)c1O [TENIPOSIDE] | 0% | 0.9 ×10⁻⁶ cm/s | 8.8 ×10⁻⁶ cm/s | 9.8 |  |  |  | 2.1
CN1CCN(CCCN2c3ccccc3Sc3ccc(C(F)(F)F)cc32)CC1 [TRIFLUOPERAZINE] | 16% | 0.5 ×10⁻⁶ cm/s | 1 ×10⁻⁶ cm/s | 1.9 | 0.9 |  |  | 
COc1cc(Cc2cnc(N)nc2N)cc(OC)c1OC [TRIMETHOPRIM] |  | 15.9 ×10⁻⁶ cm/s | 11.2 ×10⁻⁶ cm/s | 0.7 | 0.4 |  |  | 
CC[C@]1(O)C[C@H]2CN(CCc3c([nH]c4ccccc34)[C@@](C(=O)OC)(c3cc4c(cc3OC)N(C=O)[C@H]3[C@@](O)(C(=O)OC)[C@H](OC(C)=O)[C@]5(CC)C=CCN6CC[C@]43[C@@H]65)C2)C1 [VINCRISTINE] | < 10% |  |  |  |  | 0.4 ×10⁻⁶ cm/s | 3.5 ×10⁻⁶ cm/s | 8.6
CCC1=C[C@@H]2CN(C1)Cc1c([nH]c3ccccc13)[C@@](C(=O)OC)(c1cc3c(cc1OC)N(C)[C@H]1[C@@](O)(C(=O)OC)[C@H](OC(C)=O)[C@]4(CC)C=CCN5CC[C@]31[C@@H]54)C2 [VINORELBINE] | 45% | 1.4 ×10⁻⁶ cm/s | 8.5 ×10⁻⁶ cm/s | 5.9 |  |  |  | 1
Cc1cn([C@H]2C[C@H](N=[N+]=[N-])[C@@H](CO)O2)c(=O)[nH]c1=O [ZIDOVUDINE] | 90% | 6.7 ×10⁻⁶ cm/s | 9.6 ×10⁻⁶ cm/s | 1.4 |  |  |  | 
